Data on one compound can be found in patent publication US11613531B2, “Inhibitors of RHO associated coiled-coil containing protein kinase” (Kadmon Corporation, LLC, priority 2017, dated 2023).

Molecules are shown by their SMILES. Entries after “also recorded” stand apart in the source; their conditions may differ.

Assay [1] addresses Recombinant ROCK1 (amino acids 1-535) (Homo sapiens (Human), UniProt Q13464). Put plainly: Z′-Lyte kinase assay, ROCK1. Format: biochemical. An outline of the steps:
(§1)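 Recombinant human ROCK1 (aa 1-535) or ROCK2 (aa 1-552) activity read by Z′-Lyte kinase assay. Percent inhibition at 1 μM compound was normalized to DMSO control; IC50 from 9-point 2-fold serial dilutions by nonlinear regression.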

Assay [2] addresses Recombinant ROCK2 (amino acids 1-552) (Homo sapiens (Human), UniProt O75116). Put plainly: Z′-Lyte kinase assay, ROCK2. Format: biochemical. An outline of the steps:
as §1

Assay [3] has as its system ppMlc (T18/S19) levels in A7R5 cells. Put plainly: A7R5 in-cell ELISA (pMLC). The format is cell-based, Rat. As to conditions: Rattus norvegicus, A7R5, A7R5 cells. An outline of the steps: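 A7R5 rat aortic smooth muscle cells seeded 24 h, then treated 90 min with a 9-point 2-fold compound dilution series. Fixed cells probed for ppMlc (T18/S19) by colorimetric in-cell ELISA; cellular IC50 from nonlinear regression curve fit.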
On the technique in general: In an ELISA, binding on a coated surface is turned into a signal by an enzyme label.

In assay [4] the test system is human ACTA2 gene promoter luciferase reporter in NIH3T3 cells. Put plainly: NIH3T3 Acta2-promoter driven-luciferase assay. As to conditions: NIH3T3, 24 h, NIH3T3 cells, plus TGFβ1 for 24 hr; read-out: NIH3T3 Acta2-luc, IC50. The format is cell-based. In short, it runs like this: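 NIH3T3 cells stably carrying a human ACTA2 promoter (−1000-1 bp)-luciferase reporter, grown to confluence, treated 24 hr with compound plus TGFβ1 at 9-point serial dilution. Luciferase read after lysis; IC50 by nonlinear regression.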

Assay [5] has as its system CCD18lu human lung fibroblasts. The experiment in a line: F-actin stress fiber formation (phalloidin staining). The format is cell-based.
Assay [6] deals with MKL1 in CCD18Lu human lung fibroblasts. The experiment in a line: MKL1 nuclear translocation, immunofluorescent staining. Format: cell-based. As to conditions: 3 μM, 3 hours. As to the method: FIG. 3. Immunofluorescent staining of MKL1 in human lung fibroblasts. CCD18Lu human lung fibroblasts were treated with compounds for 3 hours and fixed and stained for MKL1, F-actin and DAPI. […] The Example 228 compound abolished nuclear accumulation of MKL1 in cultured human lung fibroblasts. CCD18Lu human lung fibroblasts were treated with the ROCK inhibitor (3 μM) for 3 hours and fixed and stained for MKL1, F-actin and DAPI.

The subject of assay [7] is Detroit 562 cells. Put plainly: Integrin αvβ6 mediated latent TGFβ activation (phospho-Smad2/3). The format is cell-based. To be noted: with thrombin, 2 hours. As to the method:
FIG. 5. ROCK inhibitor (Example 228) blocked integrin αvβ6 mediated latent TGFβ activation. Integrin αvβ6 positive cell line Detroit 562 cells were plated and treated with compounds in combination with parl ligand thrombin for 2 hours, lysed and activation of TGFβ signaling was detected by phosphorylation of transcription factors Smad2/3. Integrin αvβ6 mediated latent TGFβ activation requires ROCK activity (Jenkins et al., 2006). Activation of the latent TGF3 complex is a key step in regulating the biological availability of this molecule and its subsequent activities. Under tissue injury, extracellular protease cleavage of cell membrane receptor protease-activated receptor 1 (parl) leads to activation of Rho/ROCK, which in turn activates latent ECM associated TGFβ through cell membrane integrin αvβ6. […] Integrin αvβ6 positive cell line Detroit 562 cells were plated and treated with compounds in combination with parl ligand thrombin for 2 hours, lysed and activation of TGFβ signaling was detected by phosphorylation of transcription factors Smad2/3.

The test system of assay [8] is ppMLC in SVEC4-10 cells. The experiment in a line: Thrombin induced MLC phosphorylation western blot. The format is cell-based, Mouse. As to conditions: SVEC4-10 endothelial cells, increasing doses of thrombin, 10 min. As to the method:
FIG. 7b. […] Mouse endothelial cell line SVEC4-10 cells were cultured and treated with increasing doses of thrombin in combination with ROCKi for 10 min. ppMLC signal was detected by western blot. […] Mouse endothelial cell line SVEC4-10 was cultured and treated with increasing doses of thrombin in combination with ROCK inhibitor for 10 min. ppMLC signal was detected by western blot. […] Collectively, the above data strongly supports the ROCK inhibitors of the invention as an effective intervention in fibrotic diseases.
A general note: In western blotting, separated proteins are transferred to a membrane and probed.

Setting [9] is: 9 points 2-fold serial dilution.

Sequence of Recombinant ROCK2 (amino acids 1-552) (O75116 1-552): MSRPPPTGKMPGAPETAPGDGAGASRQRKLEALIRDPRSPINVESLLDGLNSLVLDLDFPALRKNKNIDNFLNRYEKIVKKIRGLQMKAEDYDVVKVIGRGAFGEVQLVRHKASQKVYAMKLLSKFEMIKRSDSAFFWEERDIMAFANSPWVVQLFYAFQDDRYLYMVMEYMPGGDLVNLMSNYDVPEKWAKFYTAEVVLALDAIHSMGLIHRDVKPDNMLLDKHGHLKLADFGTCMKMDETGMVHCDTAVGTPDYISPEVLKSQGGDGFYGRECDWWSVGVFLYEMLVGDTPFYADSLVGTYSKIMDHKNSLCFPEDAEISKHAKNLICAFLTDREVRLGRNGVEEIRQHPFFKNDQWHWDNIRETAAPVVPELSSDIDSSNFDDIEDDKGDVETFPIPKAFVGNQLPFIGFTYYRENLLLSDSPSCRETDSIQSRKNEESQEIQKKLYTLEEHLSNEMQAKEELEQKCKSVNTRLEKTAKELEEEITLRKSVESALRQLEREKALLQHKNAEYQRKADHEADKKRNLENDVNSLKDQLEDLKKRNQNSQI
Sequence of Recombinant ROCK1 (amino acids 1-535) (Q13464 1-535): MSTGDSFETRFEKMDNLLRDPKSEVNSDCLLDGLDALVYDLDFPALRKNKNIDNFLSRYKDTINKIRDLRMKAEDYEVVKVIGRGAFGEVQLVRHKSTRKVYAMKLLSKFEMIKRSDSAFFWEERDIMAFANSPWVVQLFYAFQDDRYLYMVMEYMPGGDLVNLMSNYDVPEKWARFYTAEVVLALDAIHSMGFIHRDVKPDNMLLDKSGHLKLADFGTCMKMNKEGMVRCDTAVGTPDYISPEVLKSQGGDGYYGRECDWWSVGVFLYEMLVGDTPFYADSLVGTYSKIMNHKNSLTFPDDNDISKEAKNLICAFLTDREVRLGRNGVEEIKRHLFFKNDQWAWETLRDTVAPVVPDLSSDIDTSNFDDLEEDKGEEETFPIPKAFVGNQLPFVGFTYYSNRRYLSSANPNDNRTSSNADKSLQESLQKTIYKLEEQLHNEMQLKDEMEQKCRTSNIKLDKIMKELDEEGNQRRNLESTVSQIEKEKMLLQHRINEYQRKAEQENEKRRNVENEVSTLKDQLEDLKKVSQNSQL

Turning to `c1cc(Nc2ccc3[nH]ncc3c2)nc(N2C3CCC2CNC3)n1` [Example 228, N-(2-(3,8-diazabicyclo[3.2.1]octan-8-yl)pyrimidin-4-yl)-1H-indazol-5-amine], the inhibition at 3 µM in assay [1] (3 μM compound, read-out: ROCK1 % inh. @ [conc]) came out at 98.5%; in assay [2] (3 μM compound, read-out: ROCK2 % inh. @ [conc]), 101%. Further, the IC50 in assay [1] (setting [9]) is 4 nM; in assay [2] (setting [9]), 3 nM; in assay [3] (ppMlc (T18/S19)) it was 69 nM; in assay [4], 151 nM. Also, the inhibition at 10 µM in assay [3] (10 μM compound, read-out: pMLC % inh A7R5 @ [conc]) worked out at 83%. Further, the “F-actin stress fiber formation” value in assay [5] is given as “phenotypically copied gene silencing; also recorded: inhibited”. For the same compound, the “nuclear accumulation of MKL1” value in assay [6] is given as “abolished”. In addition, the stress fiber formation result in assay [6] (F-actin staining) is reported as “efficiently cleared”. Further, the “integrin αvβ6 mediated latent TGFβ activation (phosphorylation of Smad2/3)” value in assay [7] is on record as “blocked”. The “thrombin induced phosphorylation of MLC” value in assay [8] is on record as “potently inhibited”.

The term IC50 denotes the point on the concentration scale where inhibition reaches its midpoint.
